Experimental data published in patent publication US20140309192A1, “MODULATORS OF THE G PROTEIN-COUPLED MAS RECEPTOR AND THE TREATMENT OF DISORDERS RELATED THERETO” (ARENA PHARMACEUTICALS, INC., priority 2011, published 2014).

Legend:
[1] = tested on: isolated perfused mouse hearts; experiment: Ex vivo coronary flow, Langendorff perfused isolated mouse hearts; conditions: 1 μM
Protocol: Coronary flow was measured in male Mas^−/− and Mas^+/+ mice, and in male Sprague-Dawley rats using Langendorff perfused isolated hearts. Freshly isolated hearts were placed on a Langendorff apparatus (Harvard Apparatus) and perfused at a constant pressure of 80 mmHg with a modified Krebs-Henseleit buffer solution (Sigma K3753) and aerated with 95% oxygen and 5% carbon dioxide, pH 7.35-7.4. The temperature was maintained at 37° C. by surrounding the heart with a water-heated glassware chamber. Coronary flow was measured using a flow measurement system (Harvard Apparatus) which included the transit time flow meter and a flow probe built into an adaptor block located at the perfusate inflow port. Data were recorded continuously using an ISOHEART data acquisition system (Harvard Apparatus). After a 20-min equilibration period, Mas compounds were added to the perfusion buffer reservoir at the desired concentration (agonist AR234960 at 1 μM, or inverse agonist AR244555 at 5 μM) and coronary flow was recorded for 10 min

[2] = tested on: isolated perfused rat hearts; experiment: Global ischemia-reperfusion in Langendorff perfused rat hearts (coronary flow, arrhythmias)
Protocol: For ischemia-reperfusion experiments, Langendorff perfused rat hearts were equilibrated for 20 min and then baseline coronary flow was recorded for 10 min Thereafter, all hearts were subjected to 30 min of global ischemia by stopping perfusate flow, followed by 30 min of reperfusion with either vehicle (0.01% DMSO), Mas agonist AR234960 (1 μM) or Mas inverse agonist AR244555 (5 μM) added to the perfusion buffer. Electrocardiography was also continuously recorded during the observation period through electrodes attached directly to the surface of the ventricles to detect cardiac arrhythmias during reperfusion.

Male Sprague Dawley rats = experiment: Rat model of transient cerebral ischemia/stroke; type: in vivo; conditions: 3 mg/kg bolus i.v. 1 min prior to MCA occlusion or at the onset of reperfusion
Protocol: Rats were anesthetized with pentobarbital (70 mg/kg). Normal body temperature was maintained by placing the animals on heating pads. A midline neck incision was made and soft tissues were pulled apart, and the external carotid artery (ECA), and internal carotid artery (ICA) were exposed. […] An incision was made around the left hind leg area and exposing the femoral vein. A 30-mm length of 3-0 monofilament nylon suture coated with 0.1% poly-lysine was inserted into the right ICA lumen through a small incision at about 4-mm proximal to the carotid bifurcation. The filament was advanced 18-22 mm from the start of the carotid bifurcation to block the origin of the right middle cerebral artery (MCA) for the ischemia time designed. Reperfusion was obtained by pulling out the occluding filament at the end of the MCA. After occlusion the tissues around the neck were closed with 4-0 silk suture (Ethicon, 1677G). The skin around the neck was closed with metal clips and the cutting area was treated with iodine. At the end of the reperfusion period (e.g. 24 h) the rats were anesthetized with Nembutal (70 mg/kg) and the brains were removed. […] Whole area (WA) and infarct area (IA) were measured for each coronal section. Brain damage was assessed by IA/(IA+WA). […]

Male Sprague-Dawley rats = experiment: Myocardial ischemia/reperfusion injury in rats, infarct size (Example 4); type: in vivo, rat
Protocol: Adult rats were anesthetized with sodium pentobarbital (50 mg/kg i.p.) and placed in the supine position on a surgery frame with a heating pad (37° C.) beneath. Rats were tracheostomized and ventilated with a SAR-830 small-animal ventilator (Model 683, Harvard Apparatus) to provide room air at a tidal volume of 2.5 mL/stroke and at a rate of 70 stroke/min. Polyethylene catheters were placed in the right internal carotid artery and the external jugular vein for measurement of mean arterial blood pressure and infusion of drug or vehicle, respectively.
Myocardial I/R injury was produced as follows. A left thoracotomy was performed approximately 20 mm from the sternum to expose the heart at the fifth intercostal space. […]
Animals were randomly divided into the following 4 groups: (1-3) low, medium, and high doses of Compound 170 administered by continuous i.v. infusion starting 30 min before coronary artery ligation (n=6 per dose), and (4) 20% HPBCD (vehicle, hydroxypropyl-β-cyclodextrin) administered by continuous i.v. infusion beginning 30 min before coronary artery ligation (n=6). […] Mean arterial blood pressure was measured after stabilization and just prior to drug infusion (baseline) and again following 25 min of drug or vehicle infusion, before coronary artery ligation. […]

| Compound | coronary flow, Mas knockout (Mas−/−) mouse hearts [1] | coronary flow, Mas+/+ mouse hearts [1] | coronary flow, wild type (Mas+/+) mouse hearts [1] | frequency of prolonged ventricular arrhythmias during reperfusion ([2]; 1 μM, three out of seven hearts) | coronary flow during reperfusion compared to vehicle treated hearts ([2]; 30 min global ischemia, 30 min reperfusion, AR234960 1 μM, AR244555 5 μM in perfusate during reperfusion) | brain damage associated with transient ischemic injury (Male Sprague Dawley rats) | reduction of myocardial infarction size (Male Sprague-Dawley rats; FIG. 5, rats subjected to coronary artery ligation and reperfusion) | myocardial infarct size after reperfusion compared to vehicle treatment (Male Sprague-Dawley rats; medium (1.878 mg/kg loading + 0.492 mg/kg/h) and high dose (6.26 mg/kg loading + 1.64 mg/kg/h) i.v., 30 min ischemia, 2 h reperfusion) |
| --- | --- | --- | --- | --- | --- | --- | --- | --- |
| COc1cc([N+](=O)[O-])ccc1S(=O)(=O)N1CC(CN2CCN(c3ccccn3)CC2)C(c2cccc(F)c2)C1 (centres unmarked) [AR234960] | absent | 64 % of baseline | decreased coronary flow significantly | 42.9% | trend toward decreased coronary flow |  |  |  |
| NC(=O)[C@H](CO)NCc1ccc(C(=O)Nc2ccc(Cl)cc2N2CCN(CCC(F)(F)F)CC2)c(F)c1F [Compound 170, (S)-4-((1-Amino-3-hydroxy-1-oxopropan-2-ylamino)methyl)-N-(4-chloro-2-(4-(3,3,3-trifluoropropyl)piperazin-1-yl)phenyl)-2,3-difluorobenzamide] |  |  |  |  |  | reduced brain damage | dose dependent effect | significant decrease |
